Results reported in patent US10781184B2, “Substituted benzazinones as antibacterial compounds” (GlaxoSmithKline Intellectual Property Development Limited, priority 2015, dated 2020).
Values after ≈ are worked out from the molar mass of the structure shown. Where a name gives a salt, the structure may show the parent alone. Read-outs that look alike come from different tables or passages of the source.

Experiments:
Experiment in all cases: Minimum Inhibitory Concentration Assay (broth microdilution, CLSI)
Type in all cases: cell-based
[1] = tested on: E. coli 7623
Procedure: (§1) Methods for dilution Antimicrobial Susceptibility TestS for Bacteria that Grow Aerobically; Approved Standard-Ninth Edition; M7-A9, Vol. 32 No. 2, Clinical and Laboratory Standards Institute, Wayne, Pa.; January 2012.
(§2) Performance Standards for Antimicrobial Susceptibility Testing; Twenty-Second Informational Supplement; M100-S22 Vol. 32 No. 3; Clinical and Laboratory Standards Institute, Wayne, Pa., January 2012.
(§3) Broth microdilution was performed in accordance with the CLSI recommended procedures for aerobic bacteria [CLSI, 2012].
(§4) Comparator compound stock solutions were prepared as recommended by CLSI [CLSI, 2012]. The stock solutions of novel GSK compounds were prepared at 512 mcg/mL by dissolving the compounds in dimethyl sulfoxide (DMSO) and diluting 1:10 with sterile water. The 512 mcg/mL stock was further serially diluted in the recommended broth media for the organisms being tested. Final DMSO concentration in test wells was less than 1%.
(§5) Microtitre plates were prepared using the Microlab STAR™ (Hamilton Co., Reno, Nev.) to add media (50 μL) and the Microlab AT Plus system (Hamilton Co., Reno, Nev.) to serially dilute the compounds (final concentration range 0.125 to 128 mcg/mL) and to add inoculum. A positive growth control well containing medium and the test isolate was included on each microtitre plate. Ten microliters of the test medium from the positive growth control well was plated to determine the purity of each test isolate. A microtitre mirror reader (Cooke Instruments, Ltd., England) was used to assist in determining the microdilution MIC endpoints. The MIC was determined as the lowest concentration of compound that inhibited visible growth of the organism.

[2] = tested on: K. pneumoniae 1161486
Procedure: as §1, §2, §3, §4, §5

[3] = tested on: P. aeruginosa PA01; conditions: Pseudomonas aeruginosa
Procedure: as §1, §2, §3, §4, §5

[4] = Escherichia coli, strain 7623, broth microdilution, read-out: E. coli 7623 MIC
[5] = Klebsiella pneumoniae, strain 1161486, broth microdilution, read-out: K. pneumoniae 1161486 MIC
[6] = strain PA01, broth microdilution, read-out: P. aeruginosa PA01 MIC
[7] = Escherichia coli, 7623, read-out: E. coli 7623 MIC (ug/mL)
[8] = Klebsiella pneumoniae, 1161486, read-out: K. pneumoniae 1161486 MIC (ug/mL)
[9] = PA01, read-out: P. aeruginosa PA01 MIC (ug/mL)

Compound	MIC [1, 4] [µg/mL]	MIC [2, 5] [µg/mL]	MIC [3, 6] [µg/mL]	MIC [1, 7] [µg/mL]	MIC [2, 8] [µg/mL]	MIC [3, 9] [µg/mL]
Cc1ccc(-c2ccc3c(=O)n(CC[C@](C)(C(=O)NO)S(C)(=O)=O)cnc3c2)cc1 [Example 2, (R)—N-hydroxy-2-methyl-2-(methylsulfonyl)-4-(4-oxo-7-(p-tolyl)quinazolin-3(4H)-yl)butanamide]	0.06 (≈ 0.14 µM)	0.125 (≈ 0.291 µM)	0.5 (≈ 1.16 µM)	–	–	–
CN(C)c1ccc(-c2ccc3c(=O)n(CC[C@](C)(C(=O)NO)S(C)(=O)=O)cnc3c2)cc1 [Example 4, (R)-4-(7-(4-(dimethylamino)phenyl)-4-oxoquinazolin-3(4H)-yl)-N-hydroxy-2-methyl-2-(methylsulfonyl)butanamide Trifluoroacetic Acid Salt]	–	–	–	≤ 0.03	0.25	8
C[C@@](CCn1cnc2cc(-c3ccc(OC(F)F)cc3)ccc2c1=O)(C(=O)NO)S(C)(=O)=O [Example 5, (R)-4-(7-(4-(difluoromethoxy)phenyl)-4-oxoquinazolin-3(4H)-yl)-N-hydroxy-2-methyl-2-(methylsulfonyl)butanamide]	≤ 0.03	0.06 (≈ 0.125 µM)	2 (≈ 4.15 µM)	–	–	–
COc1ccc(-c2cc(F)c3c(=O)n(CC[C@](C)(C(=O)NO)S(C)(=O)=O)cnc3c2)cc1 [Example 16, (2R)-4-[5-fluoro-7-(4-methoxyphenyl)-4-oxo-3,4-dihydroquinazolin-3-yl]-N-hydroxy-2-methanesulfonyl-2-methylbutanamide]	0.25 (≈ 0.539 µM)	1 (≈ 2.16 µM)	8 (≈ 17.3 µM)	–	–	–
Cc1ccc(-c2ccc3c(=O)n(CC[C@](C)(C(=O)NO)S(C)(=O)=O)nnc3c2)cc1 [Example 18, (2R)—N-hydroxy-2-methanesulfonyl-2-methyl-4-[7-(4-methylphenyl)-4-oxo-3,4-dihydro-1,2,3-benzotriazin-3-yl]butanamide]	0.5 (≈ 1.16 µM)	1 (≈ 2.32 µM)	16 (≈ 37.2 µM)	–	–	–
Cc1ccc(-c2ccc3c(=O)n(CC[C@](C)(C(=O)NO)S(C)(=O)=O)nnc3c2)c(F)c1 [Example 19, (2R)-4-[7-(2-fluoro-4-methylphenyl)-4-oxo-3,4-dihydro-1,2,3-benzotriazin-3-yl]-N-hydroxy-2-methanesulfonyl-2-methylbutanamide]	0.125 (≈ 0.279 µM)	0.25 (≈ 0.557 µM)	8 (≈ 17.8 µM)	–	–	–
C[C@@](CCn1cnc2cc(-c3ccc(CN4CCOCC4)cc3)c(F)cc2c1=O)(C(=O)NO)S(C)(=O)=O [Example 20, (R)-4-(6-fluoro-7-(4-(morpholinomethyl)phenyl)-4-oxoquinazolin-3(4H)-yl)-N-hydroxy-2-methyl-2-(methylsulfonyl)butanamide hydrochloride]	–	–	–	0.125	0.25	4
C[C@@](CCn1cnc2cc(-c3ccc(CCN4CCOCC4)cc3)c(F)cc2c1=O)(C(=O)NO)S(C)(=O)=O [Example 21, (2R)-4-(6-fluoro-7-{4-[2-(morpholin-4-yl)ethyl]phenyl}-4-oxo-3,4-dihydroquinazolin-3-yl)-N-hydroxy-2-methanesulfonyl-2-methylbutanamide]	0.063 (≈ 0.115 µM)	0.5 (≈ 0.915 µM)	4 (≈ 7.32 µM)	–	–	–
CN(Cc1ccc(-c2cc3ncn(CC[C@](C)(C(=O)NO)S(C)(=O)=O)c(=O)c3cc2F)cc1)C1CC1 [Example 22, (2R)-4-[7-(4-{[cyclopropyl(methyl)amino]methyl}phenyl)-6-fluoro-4-oxo-3,4-dihydroquinazolin-3-yl]-N-hydroxy-2-methanesulfonyl-2-methylbutanamide]	< 0.03	0.25 (≈ 0.484 µM)	8 (≈ 15.5 µM)	–	–	–
COCCN(C)Cc1ccc(-c2cc3ncn(CC[C@](C)(C(=O)NO)S(C)(=O)=O)c(=O)c3cc2F)c(F)c1 [Example 23, (2R)-4-[6-fluoro-7-(2-fluoro-4-{[(2-methoxyethyl)(methyl)amino]methyl}phenyl)-4-oxo-3,4-dihydroquinazolin-3-yl]-N-hydroxy-2-methanesulfonyl-2-methylbutanamide]	0.25 (≈ 0.452 µM)	0.5 (≈ 0.905 µM)	4 (≈ 7.24 µM)	–	–	–
COC1CN(CCc2ccc(-c3cc4ncn(CC[C@](C)(C(=O)NO)S(C)(=O)=O)c(=O)c4cc3F)c(F)c2F)C1 [Example 24, (2R)-4-(7-{2,3-difluoro-4-[2-(3-methoxyazetidin-1-yl)ethyl]phenyl}-6-fluoro-4-oxo-3,4-dihydroquinazolin-3-yl)-N-hydroxy-2-methanesulfonyl-2-methylbutanamide]	0.25 (≈ 0.429 µM)	1 (≈ 1.72 µM)	2 (≈ 3.43 µM)	–	–	–
C[C@@](CCn1cnc2cc(-c3ccc(CNC4CC4)cc3F)c(F)cc2c1=O)(C(=O)NO)S(C)(=O)=O [Example 25, (2R)-4-(7-{4-[(cyclopropylamino)methyl]-2-fluorophenyl}-6-fluoro-4-oxo-3,4-dihydroquinazolin-3-yl)-N-hydroxy-2-methanesulfonyl-2-methylbutanamide]	0.063 (≈ 0.121 µM)	0.5 (≈ 0.961 µM)	1 (≈ 1.92 µM)	–	–	–

Second part, led by results:

MIC [1, 4] [µg/mL]	MIC [2, 5] [µg/mL]	MIC [3, 6] [µg/mL]	Compound	MIC [1, 7] [µg/mL]	MIC [2, 8] [µg/mL]	MIC [3, 9] [µg/mL]
0.5 (≈ 1.2 µM)	0.25 (≈ 0.602 µM)	1 (≈ 2.41 µM)	C[C@@](CCn1cnc2cc(-c3ccccc3)ccc2c1=O)(C(=O)NO)S(C)(=O)=O [Example 1, (R)—N-hydroxy-2-methyl-2-(methylsulfonyl)-4-(4-oxo-7-phenylquinazolin-3(4H)-yl)butanamide]	–	–	–
≤ 0.032	0.125 (≈ 0.277 µM)	0.5 (≈ 1.11 µM)	C[C@@](CCn1cnc2cc(-c3cccc(F)c3F)ccc2c1=O)(C(=O)NO)S(C)(=O)=O [Example 6, (R)-4-(7-(2,3-difluorophenyl)-4-oxoquinazolin-3(4H)-yl)-N-hydroxy-2-methyl-2-(methylsulfonyl)butanamide]	–	–	–
0.06 (≈ 0.133 µM)	0.25 (≈ 0.554 µM)	2 (≈ 4.43 µM)	C[C@@](CCn1cnc2cc(-c3cc(F)ccc3F)ccc2c1=O)(C(=O)NO)S(C)(=O)=O [Example 7, (R)-4-(7-(2,5-difluorophenyl)-4-oxoquinazolin-3(4H)-yl)-N-hydroxy-2-methyl-2-(methylsulfonyl)butanamide]	–	–	–
≤ 0.03	0.125 (≈ 0.288 µM)	0.5 (≈ 1.15 µM)	C[C@@](CCn1cnc2cc(-c3ccccc3F)ccc2c1=O)(C(=O)NO)S(C)(=O)=O [Example 8, (R)-4-(7-(2-fluorophenyl)-4-oxoquinazolin-3(4H)-yl)-N-hydroxy-2-methyl-2-(methylsulfonyl)butanamide]	–	–	–
≤ 0.03	0.125 (≈ 0.279 µM)	8 (≈ 17.9 µM)	Cc1ccc(-c2ccc3c(=O)n(CC[C@](C)(C(=O)NO)S(C)(=O)=O)cnc3c2)cc1F [Example 9, (R)-4-(7-(3-fluoro-4-methylphenyl)-4-oxoquinazolin-3(4H)-yl)-N-hydroxy-2-methyl-2-(methylsulfonyl)butanamide]	–	–	–
0.06 (≈ 0.129 µM)	0.25 (≈ 0.537 µM)	1 (≈ 2.15 µM)	C[C@@](CCn1cnc2cc(-c3ccc(C(F)F)cc3)ccc2c1=O)(C(=O)NO)S(C)(=O)=O [Example 10, (R)-4-(7-(4-(difluoromethyl)phenyl)-4-oxoquinazolin-3(4H)-yl)-N-hydroxy-2-methyl-2-(methylsulfonyl)butanamide]	–	–	–
< 0.03	0.063 (≈ 0.141 µM)	0.5 (≈ 1.12 µM)	Cc1ccc(-c2cc3ncn(CC[C@](C)(C(=O)NO)S(C)(=O)=O)c(=O)c3cc2F)cc1 [Example 15, (2R)-4-[6-fluoro-7-(4-methylphenyl)-4-oxo-3,4-dihydroquinazolin-3-yl]-N-hydroxy-2-methanesulfonyl-2-methylbutanamide]	–	–	–
